According to patent US11000033B2, “Ketone or oxime compound, and herbicide” (NISSAN CHEMICAL CORPORATION, priority 2014, dated 2021):

Tests used:
Assay type in all cases: in vivo
Alopecurus myosuroides = assay: Test Example 5: herbicidal effect by foliage application, plastic box (symbol J); conditions: 320 g/ha, 3 weeks after application
Method in brief: (§1)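 Emulsion formulation, diluted with water to the intended rate, was applied uniformly to leaves by small sprayer. Recipients were 14-day greenhouse-grown seedlings (25° C. to 30° C.). Assessment followed at 3 weeks.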

rice plant = assay: Test Example 5: effect on crop by foliage application, plastic box (symbol b); conditions: 320 g/ha, 3 weeks after application
Method in brief: (§2)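 Plants were raised from seed in a greenhouse (25° C. to 30° C.) after sowing in a plastic box of sterilized diluvial soil.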

corn = assay: Test Example 5: effect on crop by foliage application, plastic box (symbol c); conditions: 320 g/ha, 3 weeks after application
Method in brief: as §2

soybean = assay: Test Example 4: effect on crop by soil treatment (symbol d); conditions: application herbicide amount 320 g/ha
Method in brief: (§3)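 Diluvial soil (sterilized) in boxes; seeds placed spot-wise alongside weed species; ~1.5 cm covering soil. Greenhouse, 25–30° C.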

Chenopodium album = assay: Test Example 4: herbicidal effect by soil treatment (symbol O); conditions: application herbicide amount 320 g/ha
Method in brief: (§4)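 Seeds were sown in sterilized diluvial soil, covered with about 1.5 cm of soil, and the soil surface was sprayed with a water-diluted emulsion of the compound at a predetermined rate. Plants grew in a greenhouse at 25° C. to 30° C.; effects were scored visually 3 weeks after application.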

Abutilon theophrasti = assay: Test Example 5: herbicidal effect by foliage application, plastic box (symbol M); conditions: 320 g/ha, 3 weeks after application
Method in brief: as §1

Monochoria vaginalis = assay: Test Example 1: herbicidal activity, application before weed generation in submerged conditions (symbol C); conditions: application herbicide amount 320 g/ha
Method in brief: (§5)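 Weed control was rated three weeks after treatment on a 0–5 scale, from 5% or lower up to 90% or more. Pre-emergence water-surface application of diluted emulsion at a predetermined rate was made on the day of sowing, in flooded (4 cm water) pots containing rice seedlings, kept at 25–30 °C under glass.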

rice = assay: Test Example 4: effect on crop by soil treatment (symbol b); conditions: application herbicide amount 320 g/ha
Method in brief: as §3

[1] = tested on: Echinochloa oryzacola Vasing.; assay: Test Example 1: herbicidal activity, application before weed generation in submerged conditions (symbol A); conditions: application herbicide amount 320 g/ha
Method in brief: as §5

Lolium multiflorum Lam. [2] = assay: Test Example 4: herbicidal effect by soil treatment (symbol K); conditions: application herbicide amount 320 g/ha
Method in brief: as §4

[3] = tested on: directly sowed rice plant; assay: Test Example 3: effect on crop by foliage application, Wagner pot (symbol b); conditions: application herbicide amount 320 g/ha
Method in brief: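 Steps: fill a 1/10000-are Wagner pot with alluvial soil; add water and mix to submerge at 0.1–0.5 cm depth; sow rice plus Echinochloa crus-galli var. crus-galli, Leptochloa chinensis and Cyperus difformis; grow in a 25–30 °C greenhouse.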

transplanted rice plant = assay: Test Example 1: effect on crop, application before weed generation in submerged conditions (symbol a); conditions: application herbicide amount 320 g/ha
Method in brief: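 Rice at 2.5 leaf stage transplanted into submerged soil (4 cm depth) sown with three weed species; herbicide applied before weed emergence.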

Digitaria ciliaris = assay: Test Example 5: herbicidal effect by foliage application, plastic box (symbol F); conditions: 320 g/ha, 3 weeks after application
Method in brief: as §1

[4] = tested on: Echinochloa crus-galli var. crus-galli; assay: Test Example 5: herbicidal effect by foliage application, plastic box (symbol H); conditions: 320 g/ha, 3 weeks after application
Method in brief: as §1

Lolium multiflorum Lam. [5] = assay: Test Example 5: herbicidal effect by foliage application, plastic box (symbol K); conditions: 320 g/ha, 3 weeks after application
Method in brief: as §1

Amaranthus retroflexus = assay: Test Example 5: herbicidal effect by foliage application, plastic box (symbol N); conditions: 320 g/ha, 3 weeks after application
Method in brief: as §1

Structure (SMILES)	J: Alopecurus myosuroides, herbicidal effect (criteria of Test Example 1) (Alopecurus myosuroides)	b: directly sowed rice plant, effect on crop (criteria of Test Example 1) (rice plant)	c: corn, effect on crop (criteria of Test Example 1) (corn)	d: soybean, effect on crop grade (soybean)	O: Chenopodium album, herbicidal effect grade (Chenopodium album)	M: Abutilon theophrasti, herbicidal effect (criteria of Test Example 1) (Abutilon theophrasti)	Herbicidal effect grade, C: Monochoria vaginalis (Monochoria vaginalis)	b: directly sowed rice plant, effect on crop grade (rice)	Herbicidal effect grade, A: Echinochloa oryzacola Vasing. [1]	K: Lolium multiflorum Lam., herbicidal effect grade (Lolium multiflorum Lam. [2])	effect on crop b (directly sowed rice plant), grade 0-5 [3]	Effect grade on crop, a: transplanted rice plant (transplanted rice plant)	F: Digitaria ciliaris, herbicidal effect (criteria of Test Example 1) (Digitaria ciliaris)	H: Echinochloa crus-galli var. crus-galli, herbicidal effect (criteria of Test Example 1) [4]	K: Lolium multiflorum Lam., herbicidal effect (criteria of Test Example 1) (Lolium multiflorum Lam. [5])	N: Amaranthus retroflexus, herbicidal effect (criteria of Test Example 1) (Amaranthus retroflexus)
CON=C(C)CC1CC(O)=C(c2c(C)cc(-n3cccn3)cc2C)C1=O (stereo not shown) [6-073]	5 (Herbicidal ratio of 90% or more (almost completely withered))	5 (Herbicidal ratio of 90% or more (almost completely withered))	4 (Herbicidal ratio of 70% or higher and lower than 90%)	0 (Herbicidal ratio of 5% or lower (almost no effect))	0 (Herbicidal ratio of 5% or lower (almost no effect))	0 (Herbicidal ratio of 5% or lower (almost no effect))	1 (Herbicidal ratio of 5% or higher and lower than 20%)	5 (Herbicidal ratio of 90% or more (almost completely withered))	4 (Herbicidal ratio of 70% or higher and lower than 90%)	5 (Herbicidal ratio of 90% or more (almost completely withered))	5 (Herbicidal ratio of 90% or more (almost completely withered))	5 (Herbicidal ratio of 90% or more (almost completely withered))	5 (Herbicidal ratio of 90% or more (almost completely withered))	5 (Herbicidal ratio of 90% or more (almost completely withered))	5 (Herbicidal ratio of 90% or more (almost completely withered))	0 (Herbicidal ratio of 5% or lower (almost no effect))
CON=C(C)CC1CC(O)=C(c2c(C)cc(-n3cncn3)cc2C)C1=O (stereo not shown) [6-074]	0 (Herbicidal ratio of 5% or lower (almost no effect))	2 (Herbicidal ratio of 20% or higher and lower than 40%)	0 (Herbicidal ratio of 5% or lower (almost no effect))	0 (Herbicidal ratio of 5% or lower (almost no effect))	0 (Herbicidal ratio of 5% or lower (almost no effect))	0 (Herbicidal ratio of 5% or lower (almost no effect))	0 (Herbicidal ratio of 5% or lower (almost no effect))	3 (Herbicidal ratio of 40% or higher and lower than 70%)	1 (Herbicidal ratio of 5% or higher and lower than 20%)	0 (Herbicidal ratio of 5% or lower (almost no effect))	1 (Herbicidal ratio of 5% or higher and lower than 20%)	2 (Herbicidal ratio of 20% or higher and lower than 40%)	0 (Herbicidal ratio of 5% or lower (almost no effect))	3 (Herbicidal ratio of 40% or higher and lower than 70%)	2 (Herbicidal ratio of 20% or higher and lower than 40%)	0 (Herbicidal ratio of 5% or lower (almost no effect))
CON=C(C)CC1CC(O)=C(c2c(C)cc(C)cc2SC)C1=O (stereo not shown) [6-075]	5 (Herbicidal ratio of 90% or more (almost completely withered))	4 (Herbicidal ratio of 70% or higher and lower than 90%)	4 (Herbicidal ratio of 70% or higher and lower than 90%)	0 (Herbicidal ratio of 5% or lower (almost no effect))	0 (Herbicidal ratio of 5% or lower (almost no effect))	0 (Herbicidal ratio of 5% or lower (almost no effect))	2 (Herbicidal ratio of 20% or higher and lower than 40%)	0 (Herbicidal ratio of 5% or lower (almost no effect))	4 (Herbicidal ratio of 70% or higher and lower than 90%)	4 (Herbicidal ratio of 70% or higher and lower than 90%)	4 (Herbicidal ratio of 70% or higher and lower than 90%)	3 (Herbicidal ratio of 40% or higher and lower than 70%)	1 (Herbicidal ratio of 5% or higher and lower than 20%)	2 (Herbicidal ratio of 20% or higher and lower than 40%)	5 (Herbicidal ratio of 90% or more (almost completely withered))	0 (Herbicidal ratio of 5% or lower (almost no effect))
CON=C(C)CC1CC(O)=C(c2c(C)cc(Br)cc2OC)C1=O (stereo not shown) [6-076, 2-(4-bromo-2-methoxy-6-methylphenyl)-3-hydroxy-5-{2-(methoxyimino)propyl}cyclopent-2-enone]	5 (Herbicidal ratio of 90% or more (almost completely withered))	5 (Herbicidal ratio of 90% or more (almost completely withered))	5 (Herbicidal ratio of 90% or more (almost completely withered))	0 (Herbicidal ratio of 5% or lower (almost no effect))	0 (Herbicidal ratio of 5% or lower (almost no effect))	5 (Herbicidal ratio of 90% or more (almost completely withered))	2 (Herbicidal ratio of 20% or higher and lower than 40%)	5 (Herbicidal ratio of 90% or more (almost completely withered))	5 (Herbicidal ratio of 90% or more (almost completely withered))	5 (Herbicidal ratio of 90% or more (almost completely withered))	5 (Herbicidal ratio of 90% or more (almost completely withered))	5 (Herbicidal ratio of 90% or more (almost completely withered))	5 (Herbicidal ratio of 90% or more (almost completely withered))	5 (Herbicidal ratio of 90% or more (almost completely withered))	5 (Herbicidal ratio of 90% or more (almost completely withered))	1 (Herbicidal ratio of 5% or higher and lower than 20%)
